Two compounds from paper PMC8111447 (Frontiers in Pharmacology, 2021) can be followed below.

The structures appear in SMILES notation.

Holding throughout (assay): Kinase panel (Eurofins)
Holding throughout (format): biochemical
Settings in all cases: n = 2; for inhibition at 1 µM: at 1 μmol/L; for IC50: read-out: IC50 kinase inhibition

One test addresses T1, LTK(h) (Homo sapiens, UniProt P29376).
T1 construct: purchased Eurofins
From the text:
(§1) These receptors have a methionine gatekeeper in their kinase domains, and are related to hyperglycemia in other clinical trials of EGFR TKI, such as Co-1686.

The target of the next test is T2, JAK3(h) (Homo sapiens, UniProt P52333).
T2 construct: purchased Eurofins
T2 sequence (P52333 1-1124): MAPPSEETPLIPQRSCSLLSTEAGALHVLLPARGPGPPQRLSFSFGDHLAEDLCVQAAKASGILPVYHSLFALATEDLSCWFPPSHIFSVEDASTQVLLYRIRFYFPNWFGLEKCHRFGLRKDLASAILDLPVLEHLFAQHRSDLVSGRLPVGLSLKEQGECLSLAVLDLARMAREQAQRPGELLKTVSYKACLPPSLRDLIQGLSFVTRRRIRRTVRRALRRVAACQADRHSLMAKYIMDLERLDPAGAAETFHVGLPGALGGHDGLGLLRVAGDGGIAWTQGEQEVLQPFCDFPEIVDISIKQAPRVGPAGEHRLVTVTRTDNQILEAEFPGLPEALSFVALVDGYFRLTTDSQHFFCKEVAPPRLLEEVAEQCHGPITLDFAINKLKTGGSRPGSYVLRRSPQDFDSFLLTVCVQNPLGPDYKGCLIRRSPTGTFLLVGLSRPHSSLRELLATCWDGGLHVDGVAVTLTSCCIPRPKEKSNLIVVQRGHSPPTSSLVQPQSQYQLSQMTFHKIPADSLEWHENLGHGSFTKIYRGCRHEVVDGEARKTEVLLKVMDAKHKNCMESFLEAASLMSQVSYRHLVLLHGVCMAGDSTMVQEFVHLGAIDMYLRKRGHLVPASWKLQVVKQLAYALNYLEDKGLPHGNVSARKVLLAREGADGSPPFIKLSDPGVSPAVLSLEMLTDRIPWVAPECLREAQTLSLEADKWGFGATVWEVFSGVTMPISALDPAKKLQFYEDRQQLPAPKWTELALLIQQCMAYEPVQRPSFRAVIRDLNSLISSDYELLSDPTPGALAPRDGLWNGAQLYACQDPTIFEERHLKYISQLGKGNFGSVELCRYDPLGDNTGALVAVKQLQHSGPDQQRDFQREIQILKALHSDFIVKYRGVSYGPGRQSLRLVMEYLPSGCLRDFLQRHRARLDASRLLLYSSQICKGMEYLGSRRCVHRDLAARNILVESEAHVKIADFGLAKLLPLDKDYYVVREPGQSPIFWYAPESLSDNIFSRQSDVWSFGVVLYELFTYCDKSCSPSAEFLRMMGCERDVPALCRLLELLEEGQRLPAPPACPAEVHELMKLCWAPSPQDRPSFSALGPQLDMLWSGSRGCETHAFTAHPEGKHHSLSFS
Text: as §1

In another test the target is T3, Ros(h) (Homo sapiens, UniProt P08922).
T3 construct: purchased Eurofins
Text: as §1

The target of a further test is T4, IR(h), activated (Homo sapiens, UniProt P06213).
T4 construct: purchased Eurofins
T4 sequence (P06213 28-1382): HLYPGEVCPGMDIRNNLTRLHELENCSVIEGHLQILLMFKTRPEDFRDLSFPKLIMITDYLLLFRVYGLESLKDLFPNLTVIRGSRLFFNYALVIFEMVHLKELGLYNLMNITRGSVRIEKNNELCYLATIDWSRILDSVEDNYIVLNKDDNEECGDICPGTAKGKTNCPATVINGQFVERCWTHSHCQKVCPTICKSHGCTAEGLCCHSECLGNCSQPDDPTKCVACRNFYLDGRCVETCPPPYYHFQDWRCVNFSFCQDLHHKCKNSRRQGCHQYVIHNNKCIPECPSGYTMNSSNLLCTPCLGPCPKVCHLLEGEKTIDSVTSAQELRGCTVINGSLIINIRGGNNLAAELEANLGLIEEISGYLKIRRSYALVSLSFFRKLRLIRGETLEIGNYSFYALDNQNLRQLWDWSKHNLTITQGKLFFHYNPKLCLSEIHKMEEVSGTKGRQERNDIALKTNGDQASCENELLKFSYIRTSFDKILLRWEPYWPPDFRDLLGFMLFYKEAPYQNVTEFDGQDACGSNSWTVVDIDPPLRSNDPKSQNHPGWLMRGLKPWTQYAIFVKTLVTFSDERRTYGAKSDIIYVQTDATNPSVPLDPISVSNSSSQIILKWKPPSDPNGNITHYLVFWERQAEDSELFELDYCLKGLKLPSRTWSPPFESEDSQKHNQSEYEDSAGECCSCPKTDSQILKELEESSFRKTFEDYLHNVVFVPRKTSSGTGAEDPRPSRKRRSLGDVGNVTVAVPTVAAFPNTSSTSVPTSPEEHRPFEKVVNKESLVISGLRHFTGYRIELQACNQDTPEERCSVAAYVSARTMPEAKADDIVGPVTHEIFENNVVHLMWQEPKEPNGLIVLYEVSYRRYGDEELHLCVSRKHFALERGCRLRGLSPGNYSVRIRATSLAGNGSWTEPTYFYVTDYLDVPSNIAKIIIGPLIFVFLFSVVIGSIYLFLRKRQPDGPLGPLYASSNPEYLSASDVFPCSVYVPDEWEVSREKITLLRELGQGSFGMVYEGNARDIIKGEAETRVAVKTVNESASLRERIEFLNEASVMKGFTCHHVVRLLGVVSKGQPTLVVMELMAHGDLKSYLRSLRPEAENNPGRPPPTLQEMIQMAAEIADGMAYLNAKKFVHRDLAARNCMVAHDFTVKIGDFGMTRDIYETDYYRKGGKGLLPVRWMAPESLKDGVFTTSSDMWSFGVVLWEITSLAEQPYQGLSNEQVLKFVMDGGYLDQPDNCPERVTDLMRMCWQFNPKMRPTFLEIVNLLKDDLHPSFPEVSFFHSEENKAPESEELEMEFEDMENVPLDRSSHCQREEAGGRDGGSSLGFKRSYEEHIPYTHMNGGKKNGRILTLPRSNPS
Text: as §1

The next test deals with T5, Flt3(h) (Homo sapiens, UniProt P36888).
T5 construct: purchased Eurofins
T5 sequence (P36888 27-993): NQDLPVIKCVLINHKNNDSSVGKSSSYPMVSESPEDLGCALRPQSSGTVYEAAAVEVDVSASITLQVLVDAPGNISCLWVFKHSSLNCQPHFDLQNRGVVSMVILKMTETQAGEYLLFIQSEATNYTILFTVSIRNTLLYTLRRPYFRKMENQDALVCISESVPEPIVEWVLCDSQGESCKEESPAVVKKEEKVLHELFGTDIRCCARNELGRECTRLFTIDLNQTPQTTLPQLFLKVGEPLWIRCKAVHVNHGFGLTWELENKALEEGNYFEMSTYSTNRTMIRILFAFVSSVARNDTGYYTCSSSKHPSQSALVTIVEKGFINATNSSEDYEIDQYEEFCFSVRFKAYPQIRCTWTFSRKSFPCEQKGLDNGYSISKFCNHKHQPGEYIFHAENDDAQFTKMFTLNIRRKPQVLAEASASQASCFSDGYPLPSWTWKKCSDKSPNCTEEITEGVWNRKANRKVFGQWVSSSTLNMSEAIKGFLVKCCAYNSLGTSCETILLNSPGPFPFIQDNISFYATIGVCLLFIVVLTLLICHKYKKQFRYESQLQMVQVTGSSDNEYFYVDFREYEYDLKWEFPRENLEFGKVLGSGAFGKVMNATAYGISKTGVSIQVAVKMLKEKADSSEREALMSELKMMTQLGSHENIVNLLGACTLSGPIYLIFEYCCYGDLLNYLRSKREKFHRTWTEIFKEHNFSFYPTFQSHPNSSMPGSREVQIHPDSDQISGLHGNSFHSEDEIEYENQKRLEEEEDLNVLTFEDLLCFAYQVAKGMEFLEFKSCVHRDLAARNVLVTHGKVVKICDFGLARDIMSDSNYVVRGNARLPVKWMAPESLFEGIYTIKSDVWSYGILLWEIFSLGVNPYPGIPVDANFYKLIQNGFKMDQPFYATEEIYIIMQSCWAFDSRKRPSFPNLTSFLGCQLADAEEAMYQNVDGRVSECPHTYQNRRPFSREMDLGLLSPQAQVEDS
Text: as §1

The next test has as its target T6, LOK(h) (Homo sapiens, UniProt O94804).
T6 construct: purchased Eurofins
Text: as §1

The target of a further test is T7, FAK(h) (Homo sapiens, UniProt Q05397).
T7 construct: purchased Eurofins
T7 sequence (Q05397 whole entry): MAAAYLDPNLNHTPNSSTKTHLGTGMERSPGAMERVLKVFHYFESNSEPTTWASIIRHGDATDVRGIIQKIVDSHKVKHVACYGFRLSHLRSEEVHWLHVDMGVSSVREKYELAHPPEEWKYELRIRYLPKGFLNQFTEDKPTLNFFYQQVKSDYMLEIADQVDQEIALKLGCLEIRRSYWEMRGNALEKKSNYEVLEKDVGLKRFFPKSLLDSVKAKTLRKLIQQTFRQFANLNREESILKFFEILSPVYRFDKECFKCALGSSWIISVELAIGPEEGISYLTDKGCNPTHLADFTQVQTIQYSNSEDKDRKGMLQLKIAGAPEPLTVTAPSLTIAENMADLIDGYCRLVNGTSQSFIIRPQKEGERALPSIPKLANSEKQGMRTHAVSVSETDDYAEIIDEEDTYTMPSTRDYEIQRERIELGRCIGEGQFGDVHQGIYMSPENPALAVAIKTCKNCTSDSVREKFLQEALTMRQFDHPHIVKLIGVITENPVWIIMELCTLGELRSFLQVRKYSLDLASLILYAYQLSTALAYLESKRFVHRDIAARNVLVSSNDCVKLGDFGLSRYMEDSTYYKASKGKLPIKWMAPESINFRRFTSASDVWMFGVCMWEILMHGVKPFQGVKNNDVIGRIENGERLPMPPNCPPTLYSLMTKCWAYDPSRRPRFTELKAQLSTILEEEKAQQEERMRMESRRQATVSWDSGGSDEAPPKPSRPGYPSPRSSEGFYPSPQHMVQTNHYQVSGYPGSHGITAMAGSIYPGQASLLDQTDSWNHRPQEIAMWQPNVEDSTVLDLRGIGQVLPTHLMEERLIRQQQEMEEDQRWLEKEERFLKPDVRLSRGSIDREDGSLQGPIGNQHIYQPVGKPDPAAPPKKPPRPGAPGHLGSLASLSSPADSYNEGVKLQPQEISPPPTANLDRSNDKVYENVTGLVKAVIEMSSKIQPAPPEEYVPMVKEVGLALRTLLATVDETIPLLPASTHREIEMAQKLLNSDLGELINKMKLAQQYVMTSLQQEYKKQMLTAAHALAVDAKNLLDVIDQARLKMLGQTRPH
Text: as §1

T1 sequence (P29376 17-864): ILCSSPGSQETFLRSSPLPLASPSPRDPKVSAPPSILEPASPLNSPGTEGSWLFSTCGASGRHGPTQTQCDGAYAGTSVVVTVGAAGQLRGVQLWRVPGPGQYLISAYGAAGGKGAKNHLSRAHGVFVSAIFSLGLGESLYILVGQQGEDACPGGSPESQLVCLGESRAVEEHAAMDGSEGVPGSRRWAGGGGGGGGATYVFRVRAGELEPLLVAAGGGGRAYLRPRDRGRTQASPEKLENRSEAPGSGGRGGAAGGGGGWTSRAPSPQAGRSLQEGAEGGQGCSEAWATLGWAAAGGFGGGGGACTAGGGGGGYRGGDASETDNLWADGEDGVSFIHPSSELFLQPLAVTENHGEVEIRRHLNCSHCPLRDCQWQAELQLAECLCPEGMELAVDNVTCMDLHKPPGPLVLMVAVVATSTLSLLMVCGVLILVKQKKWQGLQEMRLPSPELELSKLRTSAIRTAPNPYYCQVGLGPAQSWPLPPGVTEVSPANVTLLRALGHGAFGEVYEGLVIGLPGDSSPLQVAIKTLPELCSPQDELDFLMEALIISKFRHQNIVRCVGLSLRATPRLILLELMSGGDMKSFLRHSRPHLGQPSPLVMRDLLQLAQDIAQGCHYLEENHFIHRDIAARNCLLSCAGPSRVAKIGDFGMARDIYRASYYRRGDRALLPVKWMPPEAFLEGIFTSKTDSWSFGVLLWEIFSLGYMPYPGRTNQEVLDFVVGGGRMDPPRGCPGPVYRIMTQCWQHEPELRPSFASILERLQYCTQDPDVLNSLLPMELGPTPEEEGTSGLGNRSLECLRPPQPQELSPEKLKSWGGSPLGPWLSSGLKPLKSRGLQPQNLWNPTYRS
T6 sequence (O94804 whole entry): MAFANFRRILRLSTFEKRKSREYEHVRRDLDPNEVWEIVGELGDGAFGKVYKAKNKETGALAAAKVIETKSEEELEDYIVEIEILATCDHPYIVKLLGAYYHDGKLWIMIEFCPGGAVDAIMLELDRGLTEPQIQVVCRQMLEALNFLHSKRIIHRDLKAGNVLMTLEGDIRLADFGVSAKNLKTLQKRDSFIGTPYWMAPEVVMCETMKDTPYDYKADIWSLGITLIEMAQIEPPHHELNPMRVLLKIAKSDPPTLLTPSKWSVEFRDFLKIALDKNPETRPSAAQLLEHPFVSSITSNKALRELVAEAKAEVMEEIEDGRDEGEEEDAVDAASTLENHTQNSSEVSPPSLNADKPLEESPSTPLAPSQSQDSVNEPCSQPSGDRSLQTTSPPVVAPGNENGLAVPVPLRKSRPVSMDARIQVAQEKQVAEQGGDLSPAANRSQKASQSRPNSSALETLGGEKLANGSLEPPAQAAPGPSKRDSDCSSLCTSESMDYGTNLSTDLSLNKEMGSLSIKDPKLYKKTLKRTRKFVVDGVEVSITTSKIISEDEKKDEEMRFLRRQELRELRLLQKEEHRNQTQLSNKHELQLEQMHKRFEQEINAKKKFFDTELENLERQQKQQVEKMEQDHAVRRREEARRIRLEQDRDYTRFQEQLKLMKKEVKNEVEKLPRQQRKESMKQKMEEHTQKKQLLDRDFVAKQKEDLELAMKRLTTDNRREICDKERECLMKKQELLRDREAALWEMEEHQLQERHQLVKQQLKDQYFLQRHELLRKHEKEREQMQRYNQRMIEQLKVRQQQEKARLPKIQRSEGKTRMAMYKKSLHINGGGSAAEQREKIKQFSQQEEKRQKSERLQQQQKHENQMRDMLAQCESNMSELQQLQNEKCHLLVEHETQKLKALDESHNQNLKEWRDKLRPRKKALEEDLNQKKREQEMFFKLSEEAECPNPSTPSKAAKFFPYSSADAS

As for `C=CC(=O)Nc1cc(Nc2nccc(-c3c4n(c5ccccc35)CCCC4)n2)c(OC)cc1N(C)CCNC` [Imp3], the inhibition – broadly, the percentage by which the read-out fell short of the control – at 1 µM against LTK(h) came out at 93%; against JAK3(h), 55%; against Ros(h), 98%; at IR(h), activated it was 74%; on Flt3(h), 97%; on LOK(h), 72%. The same compound displayed an inhibition at 1 µM at FAK(h) of 87%. In addition, the IC50 (commonly the point on the concentration scale where inhibition reaches its midpoint) worked out at 61 nM at LTK(h); 1370 nM on JAK3(h); 47 nM at Ros(h); 321 nM at IR(h), activated; 45 nM on Flt3(h); 593 nM at LOK(h). Moreover, the IC50 at FAK(h) came out at 267 nM.
As for `C=CC(=O)Nc1cc(Nc2nccc(-c3c4n(c5ccccc35)CCCC4)n2)c(OC)cc1N(C)CCN(C)C` [SH-1028], the inhibition at 1 µM against LTK(h) is 83%; against JAK3(h), 61%; on Ros(h) it was 96%; at IR(h), activated it was 58%; at Flt3(h), 88%; on LOK(h), 24%. On FAK(h), the inhibition at 1 µM came out at 68%. The IC50 at LTK(h) came out at 81 nM; on JAK3(h) it was 1750 nM; at Ros(h), 50 nM; on IR(h), activated, 241 nM; at Flt3(h), 71 nM; at LOK(h), 1950 nM. Besides, on FAK(h), the IC50 was found to be 235 nM.
